From patent publication US12564582B2 (Prilenia Neurotherapeutics Ltd., priority 2016, dated 2026)
Read-outs that look alike come from different tables or passages of the source.

Assays:
[1] = test system: patients with Huntington's disease; conditions: 112.5 mg bid, Week 52;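 as to Δ to placebo, change from baseline in UHDRS TMS Finger Taps: finger tapping item rates tapping with fingers of both hands, normal being 15 taps within 5 s, the combined score adds forearm pronation and supination on each side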
Protocol: These variables were analyzed in the same way as the primary efficacy endpoint except that the variable evaluation at baseline were included in the model instead of baseline UHDRS-TMS.

[2] = test system: patients with Huntington's disease; conditions: after 26 weeks of treatment;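 as to Δ to placebo, change from baseline in UHDRS TMS Finger Taps: finger tapping item rates tapping with fingers of both hands, normal being 15 taps within 5 s, the combined score adds forearm pronation and supination on each side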
Source text: The TFC scale of the UHDRS is a standardized scale used to assess 5 functional domains associated with disability shown below (occupation, finances, domestic chores (e.g. laundry, washing dishes), activities of daily living, and care level).

[3] = test system: L-DOPA-induced dystonia
Source text: Data are median (FIG. 19A) with individual values (FIG. 19BB). N=8 for all treatment groups. */**/*** represents P<0.05, P<0.01 or P<0.001 cf. vehicle-treatment. 2-way RM ANOVA (FIG. 19A) with Holm-Sidak's test or Friedman test with Dunn's test (FIG. 19B).

[4] = test system: patients with Huntington's disease;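 as to Δ to placebo, change from baseline in UHDRS TMS Finger Taps: finger tapping item rates tapping with fingers of both hands, normal being 15 taps within 5 s, the combined score adds forearm pronation and supination on each side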
Source text: Finger Taps and Pronate-Supinate (P/S) hands is a combination of finger tapping (the ability to tap the fingers of both hands where 15 repetitions in 5 seconds is considered normal) with pronation/supination (the ability to rotate the forearm and hand such that the palm is down (pronation) and to rotate the forearm and hand such that the palm is up (supination) on both sides of the body).
The hand movement score is defined as the sum of UHDRS domains finger taps, pronate-supinate hands and luria (fist-hand-palm test).
An assessment of the ability to rotate the forearm and hand such that the palm is down (pronation) and to rotate the forearm and hand such that the palm is up (supination) on both sides of the body.

[5] = test system: patients with Huntington's disease; conditions: for Δ to placebo, change from baseline in Q-Motor: Tap-Speed-Inter-Onset-interval-MN-Hand: Week 52;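 as to Δ to placebo, change from baseline in UHDRS TMS Finger Taps: finger tapping item rates tapping with fingers of both hands, normal being 15 taps within 5 s, the combined score adds forearm pronation and supination on each side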
Source text: The patient places their hand on a hand rest with their index finger positioned above a force-transducer. Recordings start after practice runs. The patient is instructed to finger tap as fast as possible between 2 auditory cues. The beginning of a tap is defined as a rise of the force by 0.05 N above maximal baseline level. The tap ends when it drops to 0.05 N before the maximal baseline level is reached again. The duration and variability of tap durations (TD), inter onset intervals (IOI), inter peak intervals (IPI), and inter tap intervals (ITI) are the exploratory outcome measures for speeded tapping. In addition, variability of peak tapping forces (TF) is calculated as coefficient of variation, and the tapping frequency (Freq), i.e., the number of taps between the onsets of the first and the last tap divided by the time in between, is determined. Five trials of 10 seconds duration are performed with each hand.

[6] = test system: patients with DYT1 and other primary genetic forms of dystonia; conditions: 45 mg b.i.d., 90 mg b.i.d.; 26 weeks
Source text: The study population consists of those with DYT1 and other primary genetic forms of dystonia, as confirmed by genetic testing. The study's other inclusion criteria are patients with a BFMD score greater than 6, male or female patients, patients of any race or ethnicity, and patients with the ability to provide informed consent.
Burke-Fahn-Marsden Dystonia Rating Scale (BFMDRS) Rating Scale evaluates nine body parts (eyes, mouth, speech, swallowing, neck, trunk, right arm, right leg, left arm, and left leg) by rating the severity factor and provoking factors for each part on a 5 point scale of 0 (no dystonia) to 4 (indicating the presence of dystonia at rest). The dystonia scores of the eyes, mouth and neck are assigned a weighting factor of 0.5, while the other 6 parts are assigned a weighting factor of 1.0. The score of each part is obtained by multiplying the provoking factor by the severity factor and the weighting factor, and then summing the scores of each part. The maximum score possible is 120. A higher score indicates more severe dystonia. […]

[7] = all pridopidine treated patients
[8] = 45 mg bid, score at week 26, patients who have completed 52 weeks of treatment
[9] = 45 mg bid, score at week 52, patients who have completed 52 weeks of treatment
[10] = 67.5 mg bid, score at week 26, patients who have completed 52 weeks of treatment
[11] = 67.5 mg bid, score at week 52, patients who have completed 52 weeks of treatment
[12] = 90 mg bid, score at week 26, patients who have completed 52 weeks of treatment
[13] = 90 mg bid, score at week 52, patients who have completed 52 weeks of treatment
[14] = 112.5 mg bid, score at week 26, patients who have completed 52 weeks of treatment
[15] = 112.5 mg bid, score at week 52, patients who have completed 52 weeks of treatment

With CCCN1CCC(c2cccc(S(C)(=O)=O)c2)CC1 [pridopidine, 4-[3-(methylsulfonyl)phenyl]-1-propyl-piperidine] the “Δ to placebo, change from baseline in UHDRS TMS Involuntary Movements” value ([1]; Stage 1 BL TFC 11-13) was 0.8, the “Δ to placebo, change from baseline in UHDRS TMS Excluding Chorea” value [1, 7] was 1.94 and the “Δ to placebo, change from baseline in UHDRS TMS Involuntary Movements” value [1, 7] was 0.57. The “Total Functional Capacity (TFC)” value [2] was “trends favoring pridopidine”, the “levels of dystonia, significance cf. LDh-vehicle” value ([3]; 15 mg/kg, 1 h epoch 1) was “ns” and the “levels of dystonia, significance cf. LDh-vehicle” value ([3]; 15 mg/kg, 1 h epoch 2) was “ns”. For the same compound, the “levels of dystonia, significance cf. LDh-vehicle” value ([3]; 15 mg/kg, 1 h epoch 3) was “ns”, the “levels of dystonia, significance cf. LDh-vehicle” value ([3]; 15 mg/kg, 1 h epoch 4) was “ns” and the “levels of dystonia, significance cf. LDh-vehicle” value ([3]; 15 mg/kg, 1 h epoch 5) was “ns”. For the same compound, the “levels of dystonia, significance cf. LDh-vehicle” value ([3]; 15 mg/kg, 1 h epoch 6) was “ns”, the “levels of dystonia, significance cf. LDh-vehicle” value ([3]; 20 mg/kg, 1 h epoch 1) was “* (P<0.05)” and the “levels of dystonia, significance cf. LDh-vehicle” value ([3]; 20 mg/kg, 1 h epoch 2) was “ns”. The “levels of dystonia, significance cf. LDh-vehicle” value ([3]; 20 mg/kg, 1 h epoch 3) was “ns”, the “levels of dystonia, significance cf. LDh-vehicle” value ([3]; 20 mg/kg, 1 h epoch 4) was “ns” and the “levels of dystonia, significance cf. LDh-vehicle” value ([3]; 20 mg/kg, 1 h epoch 5) was “ns”. The “levels of dystonia, significance cf. LDh-vehicle” value ([3]; 20 mg/kg, 1 h epoch 6) was “ns”, the “median levels of dystonia” value ([3]; 20 mg/kg, first hour) was “between moderate and marked” and the “levels of dystonia, significance cf. LDh-vehicle” value ([3]; 30 mg/kg, 1 h epoch 1) was “** (P<0.01)”. The “levels of dystonia, significance cf. LDh-vehicle” value ([3]; 30 mg/kg, 1 h epoch 2) was “*** (P<0.001)”, the “levels of dystonia, significance cf. LDh-vehicle” value ([3]; 30 mg/kg, 1 h epoch 3) was “* (P<0.05)” and the “levels of dystonia, significance cf. LDh-vehicle” value ([3]; 30 mg/kg, 1 h epoch 4) was “ns”. For the same compound, the “levels of dystonia, significance cf. LDh-vehicle” value ([3]; 30 mg/kg, 1 h epoch 5) was “ns”, the “levels of dystonia, significance cf. LDh-vehicle” value ([3]; 30 mg/kg, 1 h epoch 6) was “ns” and the “median levels of dystonia (printed dyskinesia)” value ([3]; 30 mg/kg, cumulated over 0-2 h) was “below mild (non-disabling)”. For the same compound, the “reduction of median levels of dystonia compared to LDh-vehicle” value ([3]; 30 mg/kg, cumulated over 0-2 h) was 72%, the “median levels of dystonia” value ([3]; 30 mg/kg, first, second and third hours) was “mild to moderate” and the “levels of L-DOPA-induced dystonia evoked by LDh” value ([3]; 15, 20, 30 mg/kg combined with LDh) was “significant and dose-dependent reduction”. The “Δ to placebo, change from baseline in UHDRS TMS Finger Taps” value ([4]; 45 mg bid, Week 26, ALL) was −0.3, the “Δ to placebo, change from baseline in UHDRS TMS Finger Taps” value ([4]; 45 mg bid, Week 26, BL TFC≥9, CAG Repeats <44, BL TMS 1st 3 Qs) was −0.87 and the “Δ to placebo, change from baseline in UHDRS TMS Finger Taps” value ([4]; 45 mg bid, Week 26, BL TFC≥9 and CAG Repeats>44) was −0.86. For the same compound, the “Δ to placebo, change from baseline in UHDRS TMS Finger Tapping+Pronate-Supinate Hands” value [4, 8] was −0.79, the “Δ to placebo, change from baseline in UHDRS TMS Finger Taps” value [4, 8] was −0.59 and the “Δ to placebo, change from baseline in UHDRS TMS Finger Tapping+Pronate-Supinate Hands” value [4, 9] was −0.37. The “Δ to placebo, change from baseline in UHDRS TMS Finger Taps” value [4, 9] was −0.31, the “Δ to placebo, change from baseline in UHDRS TMS Finger Taps” value ([4]; 67.5 mg bid, Week 26, ALL) was −0.07 and the “Δ to placebo, change from baseline in UHDRS TMS Finger Taps” value ([4]; 67.5 mg bid, Week 26, BL TFC≥9, CAG Repeats <44, BL TMS 1st 3 Qs) was −0.36. For the same compound, the “Δ to placebo, change from baseline in UHDRS TMS Finger Taps” value ([4]; 67.5 mg bid, Week 26, BL TFC≥9 and CAG Repeats>44) was −0.34, the “Δ to placebo, change from baseline in UHDRS TMS Finger Tapping+Pronate-Supinate Hands” value [4, 10] was 0.02 and the “Δ to placebo, change from baseline in UHDRS TMS Finger Taps” value [4, 10] was −0.13. The “Δ to placebo, change from baseline in UHDRS TMS Finger Tapping+Pronate-Supinate Hands” value [4, 11] was 0.68, the “Δ to placebo, change from baseline in UHDRS TMS Finger Taps” value [4, 11] was 0.13 and the “Δ to placebo, change from baseline in UHDRS TMS Finger Taps” value ([4]; 90 mg bid, Week 26, ALL) was −0.07. For the same compound, the “Δ to placebo, change from baseline in UHDRS TMS Finger Taps” value ([4]; 90 mg bid, Week 26, BL TFC≥9, CAG Repeats <44, BL TMS 1st 3 Qs) was −0.54, the “Δ to placebo, change from baseline in UHDRS TMS Finger Taps” value ([4]; 90 mg bid, Week 26, BL TFC≥9 and CAG Repeats>44) was −0.52 and the “Δ to placebo, change from baseline in UHDRS TMS Finger Tapping+Pronate-Supinate Hands” value [4, 12] was 0.02. The “Δ to placebo, change from baseline in UHDRS TMS Finger Taps” value [4, 12] was −0.01, the “Δ to placebo, change from baseline in UHDRS TMS Finger Tapping+Pronate-Supinate Hands” value [4, 13] was 0.48 and the “Δ to placebo, change from baseline in UHDRS TMS Finger Taps” value [4, 13] was 0.08. For the same compound, the “Δ to placebo, change from baseline in UHDRS TMS Finger Taps” value ([4]; 112.5 mg bid, Week 26, ALL) was −0.12, the “Δ to placebo, change from baseline in UHDRS TMS Finger Taps” value ([4]; 112.5 mg bid, Week 26, BL TFC≥9, CAG Repeats <44, BL TMS 1st 3 Qs) was −1.05 and the “Δ to placebo, change from baseline in UHDRS TMS Finger Taps” value ([4]; 112.5 mg bid, Week 26, BL TFC≥9 and CAG Repeats>44) was −1.07. For the same compound, the “Δ to placebo, change from baseline in UHDRS TMS Finger Tapping+Pronate-Supinate Hands” value [4, 14] was −0.23, the “Δ to placebo, change from baseline in UHDRS TMS Finger Taps” value [4, 14] was −0.21 and the “Δ to placebo, change from baseline in UHDRS TMS Finger Tapping+Pronate-Supinate Hands” value [4, 15] was 0.28. The “Δ to placebo, change from baseline in UHDRS TMS Finger Taps” value [4, 15] was 0.1, the “Δ to placebo, change from baseline in Q-Motor: Tap-Speed-Inter-Onset-interval-MN-Hand” value ([5]; 45 mg bid, FAS) was -0.0402 s and the “Δ to placebo, change from baseline in Q-Motor: Tap-Speed-Inter-Onset-interval-MN-Hand” value ([5]; 45 mg bid, HD1 and HD2 patients) was -0.0351 s. The “Δ to placebo, change from baseline in Q-Motor: Tap-Speed-Inter-Onset-interval-MN-Hand” value ([5]; 67.5 mg bid, FAS) was 0.0152 s, the “Δ to placebo, change from baseline in Q-Motor: Tap-Speed-Inter-Onset-interval-MN-Hand” value ([5]; 67.5 mg bid, HD1 and HD2 patients) was -0.0464 s and the “Q-Motor Tap Speed Inter Onset interval (IOI)” value ([5]; 90 mg bid) was “consistent and significant improvement from baseline”. The “Q-Motor Tap-Speed-Frequency” value ([5]; 90 mg bid) was “consistent improvement from baseline”, the “Δ to placebo, change from baseline in Q-Motor: Tap-Speed-Inter-Onset-interval-MN-Hand” value ([5]; 90 mg bid, FAS) was -0.0064 s and the “Δ to placebo, change from baseline in Q-Motor: Tap-Speed-Inter-Onset-interval-MN-Hand” value ([5]; 90 mg bid, HD1 and HD2 patients) was -0.0291 s. The “Δ to placebo, change from baseline in Q-Motor: Tap-Speed-Inter-Onset-interval-MN-Hand” value ([5]; 112.5 mg bid, FAS) was -0.017 s, the “Δ to placebo, change from baseline in Q-Motor: Tap-Speed-Inter-Onset-interval-MN-Hand” value ([5]; 112.5 mg bid, HD1 and HD2 patients) was -0.022 s and the “secondary outcomes (CGI, Patient Global Assessment, VAS pain, BFMDS, EQ-5D, SF-36 etc.)” value [6] was “improve the secondary outcomes”. The “severity of dystonia (BFMDRS or UDRS), primary endpoint” value [6] was “improve the severity of dystonia”.
